Consider two compounds from US20160220557A1, “USE OF ACETYL-COA CARBOXYLASE INHIBITORS FOR TREATING ACNE VULGARIS” (PFIZER INC., priority 2013, published 2016).

Each structure is given as a SMILES string.

One data set addresses T1, CYP1A2 (Homo sapiens, UniProt P05177).
T1 sequence (P05177 1-516): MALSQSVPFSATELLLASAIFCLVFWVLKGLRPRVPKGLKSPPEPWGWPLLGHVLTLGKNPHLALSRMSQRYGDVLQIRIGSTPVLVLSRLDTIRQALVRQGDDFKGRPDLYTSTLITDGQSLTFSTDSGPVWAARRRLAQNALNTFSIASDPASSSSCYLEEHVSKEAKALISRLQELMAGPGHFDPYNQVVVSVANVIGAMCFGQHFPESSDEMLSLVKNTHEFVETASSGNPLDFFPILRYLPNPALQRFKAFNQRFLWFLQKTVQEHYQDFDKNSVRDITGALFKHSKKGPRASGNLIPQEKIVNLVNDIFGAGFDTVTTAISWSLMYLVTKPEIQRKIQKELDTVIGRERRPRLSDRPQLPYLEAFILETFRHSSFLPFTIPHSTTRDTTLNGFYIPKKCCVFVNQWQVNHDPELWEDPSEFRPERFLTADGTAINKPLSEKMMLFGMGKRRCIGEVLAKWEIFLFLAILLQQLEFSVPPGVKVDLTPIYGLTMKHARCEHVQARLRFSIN
In words: biochemical.

In the next data set the target is CYP3A (Homo sapiens, UniProt P08684). In words: in vitro. The settings on record: microsomes.
Chain of CYP3A (P08684 2-503): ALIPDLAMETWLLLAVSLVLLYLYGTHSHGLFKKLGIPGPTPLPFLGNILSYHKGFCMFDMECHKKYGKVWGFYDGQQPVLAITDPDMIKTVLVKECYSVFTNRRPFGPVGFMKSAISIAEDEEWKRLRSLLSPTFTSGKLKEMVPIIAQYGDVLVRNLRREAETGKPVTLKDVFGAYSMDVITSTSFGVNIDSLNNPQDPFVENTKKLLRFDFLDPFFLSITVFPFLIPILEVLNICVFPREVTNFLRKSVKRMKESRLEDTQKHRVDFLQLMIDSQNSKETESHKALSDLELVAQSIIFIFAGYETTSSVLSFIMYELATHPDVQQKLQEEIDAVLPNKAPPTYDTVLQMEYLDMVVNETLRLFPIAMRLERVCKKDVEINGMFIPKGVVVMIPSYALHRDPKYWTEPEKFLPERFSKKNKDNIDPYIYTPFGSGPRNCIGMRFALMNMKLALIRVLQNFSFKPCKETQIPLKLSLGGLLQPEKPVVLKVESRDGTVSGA
Data set [1] has as its system de novo lipogenesis in ear skin and liver. In words: Effect of oral and topical ACCi on DNL (14C-acetate incorporation) in Syrian hamsters. Format: in vivo, Syrian hamster. The settings on record: topical 100 mg/ml single dose, vs. vehicle. How it is done:
Male Syrian gold Hamster at ˜10 weeks were maintained adlibitum on standard hamster chow and water. […] Example 3 for topical delivery was prepared as a solution in a vehicle consisting of 70:30 (Ethanol:propylene glycol) at a concentration of 100 mg/ml. Topical administration of a single dose (5 ul/ear) was applied to hamster ears with a pipette (2-10 ul) tip adhering to 2 minute intervals following the dosing order. The dosing timing allowed for the formulation to spread evenly over an approximate 1 sq cm area and absorb/dry prior to returning the animal to the cage. 1 hour post ACCi dose each animal received an IP injection of ^14C-labeled acetate (ARC0158B diluted in saline) following the 2 minute interval timing format. Each animal received an individually calculated amount of ^14C-acetate based on body weight (0.1 μCi/g in a dosing volume of 2 μl/g). One hour after the ^14C-Acetate injection animals were sacrificed by CO2 asphyxiation.
Liver and ear skin were collected for de novo lipogenesis determinations (^14C incorporation to lipid). Briefly, 2 liver punches totaling ˜400 mg of liver were collected from the bifurcated median lobe of each animal (using a 8 mm diameter Sklar Tru-punch—Sklar Instruments), rinsed with saline and blotted dry. The tissues were placed into pre-weighed in glass tubes (Pyrex 9826-16×125 mm with PTFE lined caps) containing NaOH (1.5 mL of 2.5 M).
Ear skin samples were prepared for analysis in the following manner. One 8 mm distal biopsy punch (using an 8 mm diameter Sklar Tru-punch—Sklar Instruments) (2 per animal) was taken just above the anatomical “V” in the aural cartilage to standardize sample collection area. The punch was then split into 2 layers (anterior and posterior). The anterior (front) surface is retained for analysis. The anterior skin was placed into pre-weighed in glass tubes (Pyrex 9826-16×125 mm with PTFE lined caps) containing NaOH (1.5 mL of 2.5 M).
Upon completion of the study, the liver and ear skin samples in NaOH were weighed and this weight was used to calculate the mass of the tissue collected. The capped tubes were heated in an dry oven (˜60° C.) until the tissue was fully degraded (˜4-6 hr, gentle vortexing 2-3 times during heating). Following degradation and cooling absolute ethanol (2.5 mL) was added to each sample. The tubes were recapped and vigorously mixed (vortexed) for 60 seconds and allowed to settle overnight at RT. Petroleum ether (4.8 mL) was added to each tube, recapped and the samples were vigorous mixed (60 sec). […] Aquasol-2 scintillation fluid (10 mL) (or other compatible scintillation fluid) was added to each vial and after vortexing the samples were counted in an appropriate scintillation counter (e g. Wallac Rack-Beta 1409 LSC). […]

As to `Cc1nc2ccc(C(=O)N3CCC4(CC3)CC(=O)c3c(cnn3C(C)C)C4)cc2[nH]1` [Example 1, 1-isopropyl-1′-(2-methyl-1H-benzo[d]imidazole-5-carbonyl)-4,6-dihydrospiro[indazole-5,4′-piperidin]-7(1H)-one], the IC50 at CYP1A2 and against CYP3A was more than 30 µM each time.
For `CC(C)n1ncc2c1C(=O)CC1(CCN(C(=O)c3ccc4ccc(N)nc4c3)CC1)C2` [Example 3, 1′-(2-aminoquinoline-7-carbonyl)-1-isopropyl-4,6-dihydrospiro[indazole-5,4′-piperidin]-7(1H)-one], in data set [1], the “incorporation of de novo synthesized fatty acids in liver” value is “failed to inhibit” and the “incorporation of de novo synthesized fatty acids in skin” value is on record as “failed to inhibit”.
